Laboratory results reported in patent US20050025839A1, “Formulation approach to enhance transporter-mediated drug uptake” (priority 2003, published 2005).

Key:
[1] = target: T1, hASBT (Homo sapiens, UniProt Q12908); test: Sodium-enhanced uptake into COS-hASBT cells (FIG. 1); assay type: cell-based; conditions: with vs without sodium
T1 construct: expressed in transfected cells; host or cells: COS cells (COS-hASBT)
T1 sequence (Q12908 1-348): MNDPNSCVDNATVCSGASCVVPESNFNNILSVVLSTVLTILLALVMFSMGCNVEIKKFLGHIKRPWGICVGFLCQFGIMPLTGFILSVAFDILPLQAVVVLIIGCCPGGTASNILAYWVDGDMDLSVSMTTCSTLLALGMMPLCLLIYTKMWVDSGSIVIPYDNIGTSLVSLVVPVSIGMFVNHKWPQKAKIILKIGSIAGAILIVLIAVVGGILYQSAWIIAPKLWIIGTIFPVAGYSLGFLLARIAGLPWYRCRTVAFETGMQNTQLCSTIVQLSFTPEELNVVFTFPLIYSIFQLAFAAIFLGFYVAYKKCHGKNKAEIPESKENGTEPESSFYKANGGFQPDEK
Text: FIG. 1 illustrates how this invention provides for improved uptake of active agent, and specifically the impact of sodium on the uptake of an acyclovir prodrug that utilizes the hASBT transporter, which is a sodium-dependent transporter. […] COS-hASBT cells express hASBT. Acyclovir valylchenodeoxycholate is a prodrug of acyclovir, where acyclovir valylchenodeoxycholate is a substrate for hASBT. Uptake from acyclovir valylchenodeoxycholate prodrug and uptake from acyclovir are shown as closed bar and open bar, respectively. […] Error bars represent SEM's.

[2] = prodrug vs acyclovir, refs (9,10); cited from earlier work

| Effect of sodium on uptake into COS-hASBT cells [1] | Compound | in vivo oral acyclovir bioavailability [2] |
| --- | --- | --- |
| enhanced by sodium | CC(C)[C@H](NC(=O)CC[C@@H](C)[C@H]1CC[C@H]2[C@@H]3[C@H](O)C[C@@H]4C[C@H](O)CC[C@]4(C)[C@H]3CC[C@]12C)C(=O)OCCOCn1cnc2c(=O)[nH]c(N)nc21 [acyclovir valylchenodeoxycholate] | enhance in vivo oral acyclovir bioavailability |
| did not enhance | Nc1nc2c(ncn2COCCO)c(=O)[nH]1 [acyclovir, reference compound] |  |
